# Legend:
# [1] = Stability of the crystalline form during isolation and drying; format: physicochemical
# Source text: According to another of its aspects, subject-matter of the invention is a process for the preparation of the NP01 Form of Siponimod Hemifumarate, comprising carrying out the steps (a) and (b) stated above for the preparation of the NP04 Form.
# [2] = Stability assays of the NP04 Form (storage, humidity, shredding, compression); format: physicochemical
# Method: Stability assays of the NP04 Form
# Aliquots of the compound obtained from Example 1 were subjected to the following assays: • closed in a sealed bottle for 8 days • at 25° C. with 100% relative humidity for 7 days • at 25° C. with 60% relative humidity for 7 days • at 60° C. with 75% relative humidity for 3 days • shredding treatment • Compression test under 1, 2 and 3 tons
stability of the crystalline form [1],solid form stability (form recovered after treatment) ([2]; 25° C. with 60% relative humidity for 7 days),solid form stability (form recovered after treatment) ([2]; 25° C. with 100% relative humidity for 7 days),solid form stability (form recovered after treatment) ([2]; 60° C. with 75% relative humidity for 3 days),solid form stability (form recovered after treatment) ([2]; closed in a sealed bottle for 8 days),"solid form stability (form recovered after treatment) ([2]; compression test under 1, 2 and 3 tons)",solid form stability (form recovered after treatment) ([2]; shredding treatment),Compound
unstable and converts to the NP04 Form,,,,,,,"CCc1cc(/C(C)=N/OCc2ccc(C3CCCCC3)c(C(F)(F)F)c2)ccc1CN1CC(C(=O)O)C1 [NP01 Form, Siponimod Hemifumarate]"
,stable,stable,stable,stable,stable,stable,"CCc1cc(/C(C)=N/OCc2ccc(C3CCCCC3)c(C(F)(F)F)c2)ccc1CN1CC(C(=O)O)C1 [NP04 Form, Siponimod Hemifumarate]"

# Source: patent US20240150282A1, “NOVEL CRYSTALLINE COMPOUND OF SIPONIMOD HEMIFUMARATE” (OLON S.P.A., priority 2021, published 2024)
